Peptide text beside a SMILES is read from it.
Columns and labels:
[1] = system: soluble guanylate cyclase; conditions: Ignarro 1980; cited from earlier work
[2] = system: guanylate cyclase in arterial smooth muscle; conditions: Horowitz 1983; cited from earlier work
[3] = arterial pressure in the anesthetized rabbit; format: in vivo; conditions: 1 mM solution infused in an ear vein, 0.02 to 2.2 ml/min
Protocol: A 1 mM solution of S-nitrosocaptopril was infused in an ear vein of the rabbit at rates from 0.02 to 2.2 ml/min and the phasic and mean arterial pressure recorded in the femoral artery.

[4] = system: bovine femoral artery, contraction to angiotensin I; assay: contraction of the bovine femoral artery to angiotensin I
Protocol: The data are expressed as a percentage of the maximal response to norepinephrine (10^-6 M) and are shown as mean ±SEM in each group (n=7).
(§1) Blood Vessel Preparation. Bovine coronary or femoral arteries were obtained from an abattoir immediately after sacrifice of two- to four-week-old calves. Immediately after removal, the vessel was placed in ice-cold physiologic salt solution (PSS) containing 118.3 mM NaCl, 4.7 mM KCl, 2.5 mM CaCl2, 1.2 mM MgSO4, 1.2 mM KH2 PO4, 25.0 mM NaHCO3, 11.1 mM glucose, and 0.026 mM calcium disodium (ethylenedinitrilo)-tetraacetate. The vessels were then cleaned of adventitial tissue and cut into rings of approximately 5 mm lengths. When called for by the protocol, endothelium was removed from a ring by gently rubbing the luminal surface with a watchmaker's forceps. Vascular rings with intact endothelium were then suspended in organ chambers containing 25 ml of PSS at 37° aerated with 95% O2 -5% CO2. The rings were connected to force transducers (Grass FT03C, Quincy, Mass.) and changes in isometric force recorded continuously (Grass Polygraph Model 79B) over a period of 90 minutes. The optimal length-tension relationship was determined for each ring by observing the response to 10^-6 M norepinephrine after increments in tension of 0.5 gm. The functional integrity of the endothelium was assessed by contracting the vessel with 10^-6 M norepinephrine and then observing the response to 3×10^-7 M acetylcholine chloride.

platelets = assay: platelet aggregation in PRP induced by ADP; format: cell-based, human; conditions: 11 μM ADP
Protocol: FIG. 7 depicts a graph showing the effect of S-nitrosocaptopril on platelet aggregation. Platelets in PRP were incubated with S-nitrosocaptopril over a range of concentrations for three minutes, after which ADP was added to a final concentration of 11 uM. The maximal rate of aggregation was measured and plotted as a percentage of that observed in the absence of S-nitrosocaptopril. Each point represents the mean ±SEM of five experiments each performed in duplicate.
Platelets. Volunteers who had not ingested acetylsalicylic acid for at least ten days provided venous blood within one hour of use. […] Platelet counts were determined using a Coulter counter (Model ZM; Coulter Electronics, Hialeah, Fla.) and adjusted with platelet-poor plasma (PPP) to 1.5×10^8 platelets/ml prior to use.
Platelet Aggregation. Platelet aggregation was monitored using a standard nephelometric technique (Born and Cross, J. Physiol (London) 168:178-195 (1963)) in which PRP was incubated at 37° with a final concentration of 11 μM ADP and stirred at 900 rpm in a Payton dual channel aggregometer (Payton Associates, Inc., Buffalo, N.Y.). Aggregation was quantitated by measuring either the maximal rate of change of light transmittance or the extent of change of light transmittance. […]

bovine femoral artery = assay: relaxation of isolated bovine femoral artery rings contracted with norepinephrine; conditions: norepinephrine-contracted; FIG. 2
Protocol: FIG. 2 depicts a graph showing the effect of S-nitrosocaptopril on the contraction of bovine femoral arteries to norepinephrine.
as §1
Vascular ring segments with intact endothelium were […] contracted with a concentration of norepinephrine inducing a half-maximal response. After a stable contraction had been achieved, the tissue was exposed to increasing concentrations of S-nitrosocaptopril in cumulative half-log increments. […] The apparent IC50 is approximately 1 μM.

[5] = system: bovine femoral artery, response to bradykinin; assay: response of the bovine femoral artery to bradykinin
Protocol: as §1
In the bovine femoral artery contracted with a concentration of norepinephrine inducing a half-maximal response, bradykinin induced a biphasic response.

platelet aggregation = conditions: Loscalzo 1985; cited from earlier work

## CC(C)(SN=O)C(N)C(=O)O (stereo not shown) [S-nitrosothiol of penicillamine]
[1]
  activation of soluble guanylate cyclase (in words): capable of activating soluble guanylate cyclase
[2]
  activation of guanylate cyclase in arterial smooth muscle (in words): potent activators of guanylate cyclase

## NC(CSN=O)C(=O)O (stereo not shown) [S-nitrosothiol of cysteine]
[1]
  activation of soluble guanylate cyclase (in words): capable of activating soluble guanylate cyclase
[2]
  activation of guanylate cyclase in arterial smooth muscle (in words): potent activators of guanylate cyclase

## N[C@@H](CCC(=O)N[C@@H](CSN=O)C(=O)NCC(=O)O)C(=O)O [S-nitrosothiol of glutathione]
[1]
  activation of soluble guanylate cyclase (in words): capable of activating soluble guanylate cyclase
[2]
  activation of guanylate cyclase in arterial smooth muscle (in words): potent activators of guanylate cyclase

## O=C1O[C@H]([C@@H](O)CO)C(O)=C1O [Ascorbate]
[2]
  activation of guanylate cyclase in arterial smooth muscle (in words): totally ineffective

## C[C@H](CS)C(=O)N1CCCC1C(=O)O (stereo in doubt) [captopril, D-3-mercapto-2-methylpropanoyl-L-proline]
[3]
  effect on blood pressure (in words): no effect on blood pressure
[4]
  inhibition of contractions to angiotensin I, S-nitrosocaptopril versus captopril (in words): equally inhibited contractions to angiotensin I
platelets
  inhibitory effect on platelet aggregation (in words): no inhibitory effect
Bovine femoral artery
  relaxation response (in words): no relaxation response
[5]; 10^-6 M
  effect on the response to bradykinin (in words): Neither response to bradykinin was affected

## O=N[O-].[Na+] [NaNO2]
[3]
  effect on blood pressure (in words): no effect on blood pressure

## CC(=O)N[C@@H](CSN=O)C(=O)O [S-nitroso-N-acetyl cysteine]
Platelet aggregation
  inhibition of platelet aggregation (in words): extremely potent inhibitor of platelet aggregation

## NC(N)=NCCC[C@H](NC(=O)[C@H](Cc1ccccc1)NC(=O)[C@@H]1CCCN1C(=O)[C@H](CO)NC(=O)[C@H](Cc1ccccc1)NC(=O)CNC(=O)[C@@H]1CCCN1C(=O)[C@@H]1CCCN1C(=O)[C@@H](N)CCCN=C(N)N)C(=O)O [bradykinin] (H-RPPGFSPFR-OH)
[5]; norepinephrine-contracted, higher concentrations
  response to bradykinin at higher concentrations (in words): increase in tension which was not affected by removal of the endothelium
[5]; norepinephrine-contracted, lower concentrations
  response to bradykinin at lower concentrations (in words): relaxations that were abolished by removal of the endothelium

Source: patent publication US5536723A, “S-nitroso derivatives of hydrazinoacetic acids, 1-[(acylthio and (mercapto)-1-oxoalkyl]-1,2,34-Tetrahydroquinoline-2-carboxylic acids and alanyl prolines and isoquinolines” (Brigham & Women's Hospital, priority 1994, dated 1996)
